Assay results from patent US9802941B2, “Compounds and methods for inhibiting histone demethylases” (Gilead Sciences, Inc., priority 2014, dated 2017).
Read-outs that look alike come from different tables or passages of the source.

Key:
Type in all cases: biochemical
KDM4C (JMJD2C) = molecular target: T1, KDM4C (JMJD2C) (Homo sapiens, UniProt Q9H3R0); assay: Histone lysine demethylase AlphaLISA assay, KDM4C
T1 construct: KDM4C; BRIC, Denmark; 1-349; E. coli; host or cells: E. coli
T1 sequence (Q9H3R0 1-349): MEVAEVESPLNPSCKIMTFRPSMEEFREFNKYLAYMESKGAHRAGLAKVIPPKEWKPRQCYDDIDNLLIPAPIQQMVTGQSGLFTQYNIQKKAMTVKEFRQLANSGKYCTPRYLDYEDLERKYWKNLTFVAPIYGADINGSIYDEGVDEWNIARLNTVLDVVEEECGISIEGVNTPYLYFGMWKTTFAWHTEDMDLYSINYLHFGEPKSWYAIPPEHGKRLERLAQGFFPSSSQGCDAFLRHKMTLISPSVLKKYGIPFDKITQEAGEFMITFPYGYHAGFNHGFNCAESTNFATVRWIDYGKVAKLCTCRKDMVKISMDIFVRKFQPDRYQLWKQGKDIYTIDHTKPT
Summary of the method: (§1)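 AlphaLISA demethylase assay: enzyme in buffer of 50 mM Hepes (pH 7.4-8.0), 0.003-0.01% Tween-20, 0.1% BSA, 5 μM (NH4)2Fe(SO4)2 preincubated 10 min with compound before substrate addition at room temperature. Product detected with acceptor beads then streptavidin donor beads, read after dark incubation.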

KDM2B (FBXL10) = molecular target: T2, KDM2B (FBXL10) (Homo sapiens, UniProt Q8NHM5); assay: Histone lysine demethylase AlphaLISA assay, KDM2B
T2 construct: KDM2B; BPS,; 1-650; Bac; purchased BPS Bioscience, US; host or cells: baculovirus system
T2 sequence (Q8NHM5 1-650): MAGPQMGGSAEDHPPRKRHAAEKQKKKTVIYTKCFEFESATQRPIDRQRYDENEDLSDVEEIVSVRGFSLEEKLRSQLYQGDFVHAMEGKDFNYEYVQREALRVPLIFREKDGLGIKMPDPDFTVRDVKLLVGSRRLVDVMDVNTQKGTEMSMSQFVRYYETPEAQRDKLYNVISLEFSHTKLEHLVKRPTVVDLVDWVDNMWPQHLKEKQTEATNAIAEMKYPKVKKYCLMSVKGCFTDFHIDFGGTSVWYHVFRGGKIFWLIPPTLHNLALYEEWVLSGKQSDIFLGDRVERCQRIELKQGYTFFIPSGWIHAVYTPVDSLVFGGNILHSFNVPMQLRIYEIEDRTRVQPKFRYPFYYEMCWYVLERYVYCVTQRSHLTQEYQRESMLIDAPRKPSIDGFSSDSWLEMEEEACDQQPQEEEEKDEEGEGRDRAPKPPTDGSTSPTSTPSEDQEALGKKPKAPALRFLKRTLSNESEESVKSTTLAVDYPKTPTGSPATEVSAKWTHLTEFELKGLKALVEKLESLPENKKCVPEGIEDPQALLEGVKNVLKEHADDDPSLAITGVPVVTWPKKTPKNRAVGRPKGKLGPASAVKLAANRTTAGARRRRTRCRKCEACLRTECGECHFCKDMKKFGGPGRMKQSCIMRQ
Summary of the method: as §1

PHF8 (KDM7) = molecular target: T3, PHF8 (KDM7) (Homo sapiens, UniProt Q9UPP1); assay: Histone lysine demethylase AlphaLISA assay, PHF8
T3 construct: KDM7 (PHF8); BRIC; 1-1322; Bac
Summary of the method: as §1

KDM6A (UTX) = molecular target: T4, KDM6A (UTX) (Homo sapiens, UniProt O15550); assay: Histone lysine demethylase AlphaLISA assay, KDM6A
T4 construct: KDM6A (UTX); BRIC; 919-1401; E. coli; host or cells: E. coli
Protocol: The compounds of the application, or a pharmaceutically acceptable salt, or solvate, or prodrug thereof, are tested in an in vitro AlphaLISA assay. Enzymes are dissolved in enzyme buffer and incubated before they are added to DMSO solutions of compounds of the application, or a pharmaceutically acceptable salt, or solvate, or prodrug thereof, in enzyme buffer. The reaction mixture is then incubated for an additional period of time before substrate solution is added and then the resulting mixture again incubated. Acceptor beads and suspended Epigenetic Buffer from stock are added and the suspension is again incubated before a suspension of streptavidin donor beads in Epigenetic Buffer is added. After an additional period of incubation, the plates are read.
The ability of compounds of the application to inhibit the histone lysine demethylase activity in vitro of different enzymes was determined.
The reaction mixture was incubated for another 10 minutes before 5 μL of substrate solution was added and the resulting mixture was then incubated at room temperature. […] After incubation at room temperature in the dark, the plates were read.
Enzyme Buffer: 50 mM Hepes (pH 7.4-8.0), 0.003-0.01% Tween-20, 0.1% BSA; 5 μM (NH4)2Fe(SO4)2.

KDM5B (PLU-1) = molecular target: T5, KDM5B (PLU-1) (Homo sapiens, UniProt Q9UGL1); assay: Histone lysine demethylase AlphaLISA assay, KDM5B
T5 construct: BRIC; 1-809; E. coli; host or cells: E. coli
T5 sequence (Q9UGL1 1-809): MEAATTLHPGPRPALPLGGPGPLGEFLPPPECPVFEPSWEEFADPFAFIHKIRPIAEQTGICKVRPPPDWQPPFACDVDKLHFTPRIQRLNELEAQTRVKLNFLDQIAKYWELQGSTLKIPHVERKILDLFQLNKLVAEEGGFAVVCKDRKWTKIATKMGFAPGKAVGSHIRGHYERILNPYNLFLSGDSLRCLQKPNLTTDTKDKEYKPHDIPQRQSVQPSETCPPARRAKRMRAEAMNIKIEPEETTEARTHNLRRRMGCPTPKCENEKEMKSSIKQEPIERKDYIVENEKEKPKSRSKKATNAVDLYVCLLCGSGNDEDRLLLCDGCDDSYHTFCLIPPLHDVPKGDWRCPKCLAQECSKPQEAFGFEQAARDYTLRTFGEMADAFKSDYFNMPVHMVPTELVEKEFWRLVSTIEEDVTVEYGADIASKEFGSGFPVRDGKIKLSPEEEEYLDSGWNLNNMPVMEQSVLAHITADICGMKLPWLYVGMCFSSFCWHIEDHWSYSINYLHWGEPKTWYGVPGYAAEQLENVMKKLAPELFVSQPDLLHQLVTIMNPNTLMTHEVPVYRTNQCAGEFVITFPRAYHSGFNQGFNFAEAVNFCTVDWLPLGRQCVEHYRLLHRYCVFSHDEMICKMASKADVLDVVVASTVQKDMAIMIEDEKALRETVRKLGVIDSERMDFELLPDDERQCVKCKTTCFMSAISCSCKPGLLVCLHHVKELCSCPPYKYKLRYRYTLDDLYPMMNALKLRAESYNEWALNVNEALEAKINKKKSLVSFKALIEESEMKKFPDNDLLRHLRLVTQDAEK
Summary of the method: as §1

[1] = AlphaLISA assay, read-out: HDME Inhibition KDM4C (IC50)
[2] = AlphaLISA, in vitro, read-out: HDME Inhibition KDM4C
[3] = AlphaLISA, in vitro, read-out: HDME Inhibition KDM2B
[4] = AlphaLISA, in vitro, read-out: HDME Inhibition PHF8
[5] = AlphaLISA assay, read-out: HDME Inhibition KDM6A (IC50)
[6] = AlphaLISA, in vitro, read-out: HDME Inhibition KDM6A
[7] = AlphaLISA assay, read-out: HDME Inhibition KDM5B (IC50)
[8] = AlphaLISA, in vitro, read-out: HDME Inhibition KDM5B
[9] = AlphaLISA assay, read-out: HDME Inhibition PHF8 (IC50)

T3 sequence (Q9UPP1 37-440 limits assumed): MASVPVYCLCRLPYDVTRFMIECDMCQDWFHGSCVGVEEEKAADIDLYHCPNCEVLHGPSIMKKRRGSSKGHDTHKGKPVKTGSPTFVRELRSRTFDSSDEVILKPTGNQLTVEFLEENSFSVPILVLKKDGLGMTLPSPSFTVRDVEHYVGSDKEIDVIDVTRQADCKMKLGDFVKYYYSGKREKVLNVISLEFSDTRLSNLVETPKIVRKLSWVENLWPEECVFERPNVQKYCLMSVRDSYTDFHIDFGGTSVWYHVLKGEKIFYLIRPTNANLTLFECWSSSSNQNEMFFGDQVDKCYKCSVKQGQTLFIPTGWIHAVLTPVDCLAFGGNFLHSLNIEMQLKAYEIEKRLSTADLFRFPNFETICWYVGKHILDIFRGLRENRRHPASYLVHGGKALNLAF
T4 sequence (O15550 919-1401): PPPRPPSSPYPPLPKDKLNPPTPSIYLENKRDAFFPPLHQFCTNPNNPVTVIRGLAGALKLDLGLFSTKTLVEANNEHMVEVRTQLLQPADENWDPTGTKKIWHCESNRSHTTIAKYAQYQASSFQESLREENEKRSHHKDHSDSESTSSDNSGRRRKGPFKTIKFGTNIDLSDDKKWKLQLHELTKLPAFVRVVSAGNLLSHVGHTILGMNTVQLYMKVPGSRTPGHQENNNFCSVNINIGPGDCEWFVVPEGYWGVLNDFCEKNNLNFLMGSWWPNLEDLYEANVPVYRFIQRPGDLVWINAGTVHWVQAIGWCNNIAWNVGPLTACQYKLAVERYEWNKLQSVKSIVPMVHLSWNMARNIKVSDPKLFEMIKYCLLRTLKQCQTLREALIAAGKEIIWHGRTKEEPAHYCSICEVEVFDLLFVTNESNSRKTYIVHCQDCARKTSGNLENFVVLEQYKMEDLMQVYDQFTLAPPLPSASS

| SMILES | IC50 (KDM4C (JMJD2C); [1]) | IC50 (KDM4C (JMJD2C); [2]) | IC50 (KDM2B (FBXL10); [3]) | IC50 (PHF8 (KDM7); [4]) | IC50 (KDM6A (UTX); [5]) | IC50 (KDM6A (UTX); [6]) | IC50 (KDM5B (PLU-1); [7]) | IC50 (KDM5B (PLU-1); [8]) | IC50 (PHF8 (KDM7); [9]) | IC50 (KDM2B (FBXL10); AlphaLISA assay, read-out: HDME Inhibition KDM2B (IC50)) | IC50 (KDM5B (PLU-1)) |
| --- | --- | --- | --- | --- | --- | --- | --- | --- | --- | --- | --- |
| CCC(C)Cc1cnc(CNCc2cc(C(=O)O)cc(C)n2)n1Cc1ccc(F)cc1 (stereo not drawn) [Compound 30, 2-{[({1-[(4-fluorophenyl)methyl]-5-(2-methylbutyl)-1H-imidazol-2-yl}methyl)amino]methyl}-6-methylpyridine-4-carboxylic acid] | > 10 µM | > 10 µM | 0.703 µM | 2.22 µM | > 10 µM | > 10 µM | > 10 µM | > 10 µM | – | – | – |
| CCCCCCCc1cccnc1CCNCc1cc(C(=O)O)cc(C)n1 [Compound 21, 2-({[2-(3-heptylpyridin-2-yl)ethyl]amino}methyl)-6-methylpyridine-4-carboxylic acid] | > 10 µM | > 10 µM | 5.35 µM | > 10 µM | > 10 µM | > 10 µM | > 10 µM | > 10 µM | > 10 µM | – | – |
| CSc1nnc(CNCc2cc(C(=O)O)cc(C)n2)n1Cc1ccc(F)cc1 [Compound 36, 2-{[({4-[(4-fluorophenyl)methyl]-5-(methylsulfanyl)-4H-1,2,4-triazol-3-yl}methyl)amino]methyl}-6-methylpyridine-4-carboxylic acid] | > 10 µM | > 10 µM | 0.248 µM | 0.908 µM | > 10 µM | > 10 µM | > 10 µM | > 10 µM | – | – | – |
| CCc1cnc(CNCc2cc(C(=O)O)cc(C)n2)n1Cc1ccc(F)cc1 [Compound 4, 2-{[({5-ethyl-1-[(4-fluorophenyl)methyl]-1H-imidazol-2-yl}methyl)amino]methyl}-6-methylpyridine-4-carboxylic acid] | > 10 µM | > 10 µM | 0.03 µM | 0.234 µM | > 10 µM | > 10 µM | > 10 µM | > 10 µM | – | – | – |
| Cc1cc(C(=O)O)cc(CNCCc2ncccc2Br)n1 [Compound 11, 2-({[2-(3-bromopyridin-2-yl)ethyl]amino}methyl)-6-methylpyridine-4-carboxylic acid] | > 10 µM | > 10 µM | 1.54 µM | 6.93 µM | > 10 µM | > 10 µM | – | 5.48 µM | – | – | – |
| CCc1nnc(CNCc2cc(C(=O)O)cc(C)n2)n1Cc1ccc(F)cc1 [Compound 27, 2-{[({5-Ethyl-4-[(4-fluorophenyl)methyl]-4H-1,2,4-triazol-3-yl}methyl)amino]methyl}-6-methylpyridine-4-carboxylic acid] | > 10 µM | > 10 µM | 0.158 µM | 0.537 µM | > 10 µM | > 10 µM | > 10 µM | > 10 µM | – | – | – |
| Cc1cc(C(=O)O)cc(CNCc2ncc(C(C)C)n2Cc2ccc(F)cc2)n1 [Compound 8, 2-{[({1-[(4-fluorophenyl)methyl]-5-(propan-2-yl)-1H-imidazol-2-yl}methyl)amino]methyl}-6-methylpyridine-4-carboxylic acid] | > 10 µM | > 10 µM | 0.15 µM | 0.384 µM | > 10 µM | > 10 µM | > 10 µM | > 10 µM | – | – | – |
| Cc1cc(C(=O)O)cc(CNCCc2ncccc2CCC(C)C)n1 [Compound 20, 2-methyl-6-[({2-[3-(3-methylbutyl)pyridin-2-yl]ethyl}amino)methyl]pyridine-4-carboxylic acid] | > 10 µM | > 10 µM | 5.43 µM | > 10 µM | > 10 µM | > 10 µM | > 10 µM | > 10 µM | > 10 µM | – | – |
| Cc1cc(C(=O)O)cc(CNCc2nccn2CCC(C)C)n1 [Compound 18, 2-methyl-6-[({[1-(3-methylbutyl)-1H-imidazol-2-yl]methyl}amino)methyl]pyridine-4-carboxylic acid] | > 10 µM | > 10 µM | 3.93 µM | 3.03 µM | > 10 µM | > 10 µM | > 10 µM | > 10 µM | – | – | – |
| Cc1cc(C(=O)O)cc(CNC2CCCc3cccnc32)n1 (stereo not drawn) [Compound 19, 2-methyl-6-{[(5,6,7,8-tetrahydroquinolin-8-yl)amino]methyl}pyridine-4-carboxylic acid] | > 10 µM | > 10 µM | 1.15 µM | 0.89 µM | > 10 µM | > 10 µM | – | 0.348 µM | – | – | – |
| CCC(C)c1cnc(CNCc2cc(C(=O)O)cc(C)n2)n1Cc1ccc(F)cc1 (stereo not drawn) [Compound 9, 2-[({[5-(butan-2-yl)-1-[(4-fluorophenyl)methyl]-1H-imidazole-2-yl]methyl}amino)methyl]-6-methyl-pyridine-4-carboxylic acid] | – | 0.299 µM | > 10 µM | > 10 µM | > 10 µM | > 10 µM | – | – | > 10 µM | > 10 µM | 0.714 µM |
| CCCCCCc1cccnc1CCNCc1cc(C(=O)O)cc(C)n1 [Compound 14, 2-({[2-(3-hexylpyridin-2-yl)ethyl]amino}methyl)-6-methylpyridine-4-carboxylic acid] | > 10 µM | > 10 µM | 3.23 µM | 5.6 µM | > 10 µM | > 10 µM | > 10 µM | > 10 µM | – | – | – |
